Reference: ChEMBL document CHEMBL5126638, “Resin Glycosides from Operculina hamiltonii and Their Synergism with Vinblastine in Cancer Cells” (J Nat Prod, 2022)
The source made the active and inactive calls. The rule behind the calls is not given here.

Assays:
Assay type in all cases: functional, cell-based
[1] = test system: MCF7; assay: Enhancement of 0.003 uM vinblastine-induced cytotoxicity in human MCF7 cells assessed as growth inhibition level after 48 hrs by SRB assay; conditions: MCF7, 48 h
[2] = test system: MCF7-VP; assay: Enhancement of 0.003 uM vinblastine-induced cytotoxicity in human MCF7/Vin cells assessed as growth inhibition level after 48 hrs by SRB assay
[3] = test system: HeLa; assay: Enhancement of 0.003 uM vinblastine-induced cytotoxicity in human HeLa cells assessed as growth inhibition level after 48 hrs by SRB assay
[4] = test system: HCT-116; assay: Enhancement of 0.003 uM vinblastine-induced cytotoxicity in human HCT-116 cells assessed as growth inhibition level after 48 hrs by SRB assay; conditions: HCT-116, 48 h
[5] = test system: MCF7; assay: Cytotoxicity in human MCF7 cells assessed as growth inhibition level after 48 hrs by SRB assay; conditions: MCF7, 48 h
[6] = test system: MCF7-VP; assay: Cytotoxicity in human MCF7/Vin cells assessed as growth inhibition level after 48 hrs by SRB assay
[7] = test system: HeLa; assay: Cytotoxicity in human HeLa cells assessed as growth inhibition level after 48 hrs by SRB assay
[8] = test system: HCT-116; assay: Cytotoxicity in human HCT-116 cells assessed as growth inhibition level after 48 hrs by SRB assay; conditions: HCT-116, 48 h
[9] = test system: MCF7; assay: Enhancement of 0.4 uM vinblastine-induced cytotoxicity in human MCF7 cells assessed as growth inhibition level at 25 uM after 48 hrs by Microscopic visualization based assay

Compound | IC50 [1] | IC50 [2] | IC50 [3] | IC50 [4] | IC50 [5] | IC50 [6] | IC50 [7] | IC50 [8] | Activity [9]
CCCCCCCCCC(=O)O[C@H]1[C@H](O[C@@H]2[C@H]3OC(=O)CCCCCCCCC[C@H](CCCCC)O[C@@H]4O[C@H](C)[C@H](O)[C@H](O)[C@H]4O[C@H](O[C@H]2C)[C@@H]3O)O[C@@H](C)[C@H](O[C@@H]2O[C@@H](C)[C@H](O)[C@@H](O)[C@H]2O)[C@H]1O[C@@H]1O[C@H](CO)[C@@H](O)[C@H](O)[C@H]1O | 12.3 µM | 19.4 µM | 23.8 µM | 12.8 µM | > 25 µM | > 25 µM | > 25 µM | > 25 µM | Active
CCCCCCCCCCCC(=O)O[C@H]1[C@H](O[C@@H]2[C@H]3OC(=O)CCCCCCCCC[C@H](CCCCC)O[C@@H]4O[C@H](C)[C@H](O)[C@H](O)[C@H]4O[C@H](O[C@H]2C)[C@@H]3O)O[C@@H](C)[C@H](O[C@@H]2O[C@@H](C)[C@H](O)[C@@H](O)[C@H]2O)[C@H]1O[C@@H]1O[C@H](CO)[C@@H](O)[C@H](O)[C@H]1O | 15.2 µM | 18.4 µM | 26.6 µM | 17.7 µM | > 25 µM | > 25 µM | > 25 µM | > 25 µM | Active
COc1cc2c(c(OC)c1OC)-c1ccc(OC)c(=O)cc1[C@@H](NC(C)=O)CC2 [COLCHICINE] |  |  |  |  |  | 1.57 µM | 0.006 µM | 0.08 µM | 
CCCCCCCCCC(=O)O[C@H]1[C@H](O[C@@H]2[C@@H](O)[C@@H](O)[C@H](O[C@H]3[C@H](O[C@@H](CCCCC)CCCCCCCCCC(=O)OC)O[C@H](C)[C@H](O)[C@@H]3O)O[C@H]2C)O[C@@H](C)[C@H](O[C@@H]2O[C@@H](C)[C@H](O)[C@@H](O)[C@H]2O)[C@H]1O[C@@H]1O[C@H](CO)[C@@H](O)[C@H](O)[C@H]1O | 4.7 µM | 10 µM | 26.1 µM | 8.6 µM | > 25 µM | > 25 µM | > 25 µM | > 25 µM | Active
CC[C@]1(O)C[C@@H]2CN(CCc3c([nH]c4ccccc34)[C@@](C(=O)OC)(c3cc4c(cc3OC)N(C)[C@H]3[C@@](O)(C(=O)OC)[C@H](OC(C)=O)[C@]5(CC)C=CCN6CC[C@]43[C@@H]65)C2)C1 [VINBLASTINE] |  |  |  |  | 0.035 µM | 1.63 µM | 0.004 µM | 0.3 µM | 
CCCCCCCCCCCC(=O)O[C@H]1[C@H](O[C@@H]2[C@@H](O)[C@@H](O)[C@H](O[C@H]3[C@H](O[C@@H](CCCCC)CCCCCCCCCC(=O)OC)O[C@H](C)[C@H](O)[C@@H]3O)O[C@H]2C)O[C@@H](C)[C@H](O[C@@H]2O[C@@H](C)[C@H](O)[C@@H](O)[C@H]2O)[C@H]1O[C@@H]1O[C@H](CO)[C@@H](O)[C@H](O)[C@H]1O | 4.4 µM | 3.1 µM | 14.6 µM | 6.8 µM | > 25 µM | > 25 µM | > 25 µM | > 25 µM | Active
